Measurements: ChEMBL document CHEMBL5154804, “Species-Selective Targeting of Fungal Hsp90: Design, Synthesis, and Evaluation of Novel 4,5-Diarylisoxazole Derivatives for the Combination Treatment of Azole-Resistant Candidiasis” (J Med Chem, 2022)

Assays:
[1] = test system: Candida albicans; assay: Synergistic antifungal activity against fluconazole-resistant Candida albicans 311 assessed as inhibition of fungal growth in presence of fluconazole by checker board microdilution assay; type: functional; note: test concentration or dose not given here
[2] = Metabolic stability in human liver microsomes assessed as half life in presence of NADPH cofactor under shaking condition for 10 mins measured after 5 to 60 mins by LC-MS/MS analysis; type: ADME, Microsome; settings: time 15-70 min
[3] = Metabolic stability in human liver microsomes assessed as microsomal intrinsic clearance in presence of NADPH cofactor under shaking condition for 10 mins measured after 5 to 60 mins by LC-MS/MS analysis; type: ADME, Microsome; settings: time 15-70 min
[4] = test system: Candida albicans; assay: Synergistic antifungal activity against fluconazole-resistant Candida albicans 632 assessed as inhibition of fungal growth in presence of fluconazole by checker board microdilution assay; type: functional
[5] = test system: Candida albicans; assay: Synergistic antifungal activity against fluconazole-resistant Candida albicans 901 assessed as inhibition of fungal growth in presence of fluconazole by checker board microdilution assay; type: functional
[6] = test system: Candida albicans; assay: Synergistic antifungal activity against fluconazole-resistant Candida albicans 100 assessed as inhibition of fungal growth in presence of fluconazole by checker board microdilution assay; type: functional
[7] = Metabolic stability in human liver microsomes assessed as compound remaining in presence of NADPH cofactor under shaking condition for 10 mins measured after 60 mins by LC-MS/MS analysis; type: ADME, Microsome; settings: time 70 min, read-out: Stability
[8] = Metabolic stability in human liver microsomes assessed as intrinsic clearance in presence of NADPH cofactor under shaking condition for 10 mins measured after 5 to 60 mins by LC-MS/MS analysis; type: ADME, Microsome; settings: time 15-70 min
[9] = test system: Candida albicans; assay: Synergistic antifungal activity against fluconazole-resistant Candida albicans 904 assessed as inhibition of fungal growth in presence of fluconazole by checker board microdilution assay; type: functional; note: test concentration or dose not given here
[10] = test system: Candida albicans; assay: Synergistic antifungal activity against fluconazole-resistant Candida albicans 103 assessed as inhibition of fungal growth in presence of fluconazole by checker board microdilution assay; type: functional
[11] = Binding affinity to recombinant Candida albicans Hsp90 NBD expressed in Escherichia coli by SPR assay
[12] = molecular target: Heat shock protein HSP90 (Homo sapiens, UniProt P07900+P08238); assay: Binding affinity to human Hsp90 expressed in Escherichia coli by SPR assay

Compound: CCNC(=O)c1noc(-c2cc(-c3cccc(CC)c3)c(O)cc2O)c1-c1ccc(CN2CCOCC2)cc1
- MIC80 [1]: 0.5 µg/mL
- half-life [2]: 17.2 min
- CLint [3]: 80.7 µL/min/mg
- MIC80 [4]: 0.5 µg/mL
- MIC80 [5]: 0.25 µg/mL
- MIC80 [6]: 0.25 µg/mL
- remaining at 1.167 h [7]: 9.2%
- CLint [8]: 72.7 mL/min/kg
- MIC80 [9]: 0.5 µg/mL
- MIC80 [10]: 1 µg/mL

Compound: CCNC(=O)c1noc(-c2cc(-c3cccc(C(C)C)c3)c(O)cc2O)c1-c1ccc(CN2CCOCC2)cc1
- MIC80 [1]: 0.5 µg/mL
- half-life [2]: 15.1 min
- CLint [3]: 91.9 µL/min/mg
- MIC80 [4]: 0.5 µg/mL
- MIC80 [5]: 0.25 µg/mL
- MIC80 [6]: 0.25 µg/mL
- remaining at 1.167 h [7]: 6.1%
- Kd [11]: 0.476 µM
- CLint [8]: 82.7 mL/min/kg
- MIC80 [9]: 0.25 µg/mL
- Kd [12]: > 25 µM
- MIC80 [10]: 0.25 µg/mL

Compound: CCNC(=O)c1noc(-c2cc(-c3ccccc3C)c(O)cc2O)c1-c1ccc(CN2CCOCC2)cc1
- MIC80 [1]: > 64 µg/mL
- MIC80 [4]: > 64 µg/mL
- MIC80 [5]: > 64 µg/mL
- MIC80 [6]: > 64 µg/mL
- Kd [11]: > 25 µM
- MIC80 [9]: > 64 µg/mL
- Kd [12]: > 25 µM
- MIC80 [10]: > 64 µg/mL

Compound: C[C@@H]1C[C@H]2O[C@@H]2/C=C\C=C\C(=O)Cc2c(Cl)c(O)cc(O)c2C(=O)O1 [RADICICOL]
- MIC80 [1]: 1 µg/mL
- MIC80 [4]: 1 µg/mL
- MIC80 [5]: 1 µg/mL
- MIC80 [6]: 0.5 µg/mL
- Kd [11]: 0.002 µM
- MIC80 [9]: 0.5 µg/mL
- MIC80 [10]: 1 µg/mL

Compound: CCNC(=O)c1noc(-c2cc(-c3ccccc3)c(O)cc2O)c1-c1ccc(CN2CCOCC2)cc1
- MIC80 [1]: 4 µg/mL
- MIC80 [4]: 4 µg/mL
- MIC80 [5]: 1 µg/mL
- MIC80 [6]: 2 µg/mL
- Kd [11]: 7.91 µM
- MIC80 [9]: 2 µg/mL
- Kd [12]: > 25 µM
- MIC80 [10]: 4 µg/mL

Compound: Cc1ccc(-c2cc(-c3onc(C(=O)NC4COC4)c3-c3ccc(CN4CCOCC4)cc3)c(O)cc2O)cc1
- MIC80 [1]: > 64 µg/mL
- MIC80 [4]: > 64 µg/mL
- MIC80 [5]: > 64 µg/mL
- MIC80 [6]: > 64 µg/mL
- MIC80 [9]: > 64 µg/mL
- MIC80 [10]: > 64 µg/mL

Compound: CCNC(=O)c1noc(-c2cc(-c3ccccc3C(C)C)c(O)cc2O)c1-c1ccc(CN2CCOCC2)cc1
- MIC80 [1]: > 64 µg/mL
- MIC80 [4]: > 64 µg/mL
- MIC80 [5]: > 64 µg/mL
- MIC80 [6]: > 64 µg/mL
- MIC80 [9]: > 64 µg/mL
- MIC80 [10]: > 64 µg/mL

Compound: CCNC(=O)c1noc(-c2cc(-c3ccc(C(F)(F)F)cc3)c(O)cc2O)c1-c1ccc(CN2CCOCC2)cc1
- MIC80 [1]: > 64 µg/mL
- MIC80 [4]: > 64 µg/mL
- MIC80 [5]: > 64 µg/mL
- MIC80 [6]: > 64 µg/mL
- MIC80 [9]: > 64 µg/mL
- MIC80 [10]: > 64 µg/mL

Compound: CCNC(=O)c1noc(-c2cc(-c3ccccc3F)c(O)cc2O)c1-c1ccc(CN2CCOCC2)cc1
- MIC80 [1]: > 64 µg/mL
- MIC80 [4]: > 64 µg/mL
- MIC80 [5]: > 64 µg/mL
- MIC80 [6]: > 64 µg/mL
- MIC80 [9]: > 64 µg/mL
- MIC80 [10]: > 64 µg/mL

Compound: CCNC(=O)c1noc(-c2cc(-c3ccc(C)cc3)c(O)cc2O)c1-c1ccc(CNC2CCOCC2)cc1
- MIC80 [1]: > 64 µg/mL
- MIC80 [4]: > 64 µg/mL
- MIC80 [5]: > 64 µg/mL
- MIC80 [6]: > 64 µg/mL
- MIC80 [9]: > 64 µg/mL
- MIC80 [10]: > 64 µg/mL

Compound: CCNC(=O)c1noc(-c2cc(-c3ccc(C)cc3)c(O)cc2O)c1-c1ccc(CN2CCCC2)cc1
- MIC80 [1]: 4 µg/mL
- MIC80 [4]: 4 µg/mL
- MIC80 [5]: 1 µg/mL
- MIC80 [6]: 2 µg/mL
- MIC80 [9]: 2 µg/mL
- MIC80 [10]: 4 µg/mL

Compound: CCNC(=O)c1noc(-c2cc(-c3ccc(CC)cc3)c(O)cc2O)c1-c1ccc(CN2CCOCC2)cc1
- MIC80 [1]: 1 µg/mL
- MIC80 [4]: 2 µg/mL
- MIC80 [5]: 0.5 µg/mL
- MIC80 [6]: 4 µg/mL
- MIC80 [9]: 0.5 µg/mL
- MIC80 [10]: 2 µg/mL

Compound: CCNC(=O)c1noc(-c2cc(-c3cccc(Cl)c3)c(O)cc2O)c1-c1ccc(CN2CCOCC2)cc1
- MIC80 [1]: 1 µg/mL
- half-life [2]: 19.3 min
- CLint [3]: 72 µL/min/mg
- MIC80 [4]: 0.5 µg/mL
- MIC80 [5]: 1 µg/mL
- MIC80 [6]: 1 µg/mL
- remaining at 1.167 h [7]: 12.1%
- CLint [8]: 64.8 mL/min/kg
- MIC80 [9]: 0.25 µg/mL
- MIC80 [10]: 0.5 µg/mL

Compound: CCNC(=O)c1noc(-c2cc(-c3ccc(C)cc3)c(O)cc2O)c1-c1ccc(CN2CCSCC2)cc1
- MIC80 [1]: 2 µg/mL
- MIC80 [4]: 0.5 µg/mL
- MIC80 [5]: 0.5 µg/mL
- MIC80 [6]: 2 µg/mL
- MIC80 [9]: 8 µg/mL
- MIC80 [10]: 1 µg/mL
